pEC50, pIC50: −log10 of the molar value. Values after ≈ are worked out from the molar mass of the structure shown. Active and inactive are the calls of the source. No cut-off for these calls is given here.
How the values were obtained:
[1] = tested on: Staphylococcus aureus; test: Antimicrobial activity against methicillin-resistant Staphylococcus aureus isolate RKI 11-02670 after 18 hrs by serial dilution method; assay type: functional, organism-based; conditions: isolate RKI 11-02670, 18 h
[2] = tested on: L929; test: Antiproliferative activity against mouse L929 cells after 5 days by WST-1 assay; assay type: ADME, cell-based; conditions: L929, 120 h
[3] = tested on: KB 3-1; test: Antiproliferative activity against human KB-3-1 cells after 5 days by WST-1 assay; assay type: functional, cell-based; conditions: KB 3-1, 120 h
[4] = tested on: MCF7; test: Antiproliferative activity against human MCF7 cells after 5 days by WST-1 assay; assay type: functional, cell-based; conditions: MCF7, 120 h
[5] = Antiproliferative activity against human FS4-LTM cells after 24 hrs by WST-1 assay; assay type: ADME, cell-based
[6] = tested on: Staphylococcus aureus; test: Antimicrobial activity against methicillin-resistant Staphylococcus aureus up to 100 uM after 18 hrs by serial dilution method; assay type: functional, organism-based
[7] = tested on: Staphylococcus aureus; test: Antimicrobial activity against methicillin-resistant Staphylococcus aureus DSM 11822 up to 100 uM after 18 hrs by serial dilution method; assay type: functional, organism-based
[8] = tested on: Staphylococcus aureus; test: Antimicrobial activity against methicillin-resistant Staphylococcus aureus ICB 25701 up to 100 uM after 18 hrs by serial dilution method; assay type: functional, organism-based
[9] = tested on: Staphylococcus aureus; test: Antimicrobial activity against methicillin-resistant Staphylococcus aureus isolate RKI 11-02670 up to 100 uM after 18 hrs by serial dilution method; assay type: functional, organism-based
[10] = tested on: Enterococcus faecium; test: Antimicrobial activity against Enterococcus faecium DSM 20477 up to 100 uM after 18 hrs by serial dilution method; assay type: functional, organism-based
[11] = tested on: Escherichia coli; test: Antimicrobial activity against Escherichia coli DSM 1116 up to 100 uM after 18 hrs by serial dilution method; assay type: functional, organism-based
[12] = tested on: Pseudomonas aeruginosa; test: Antimicrobial activity against Pseudomonas aeruginosa PA7 DSM 24068 up to 100 uM after 18 hrs by serial dilution method; assay type: functional, organism-based
[13] = tested on: Acinetobacter baumannii; test: Antimicrobial activity against Acinetobacter baumannii DSM 30007 up to 100 uM after 18 hrs by serial dilution method; assay type: functional, organism-based
[14] = tested on: Klebsiella pneumoniae; test: Antimicrobial activity against Klebsiella pneumoniae DSM 11678 up to 100 uM after 18 hrs by serial dilution method; assay type: functional, organism-based
[15] = tested on: Candida albicans; test: Antimicrobial activity against Candida albicans up to 100 uM after 18 hrs by serial dilution method; assay type: functional, organism-based
[16] = tested on: Staphylococcus aureus; test: Growth promoting activity against methicillin-resistant Staphylococcus aureus at 50 uM after 18 hrs by serial dilution method; assay type: organism-based; conditions: in vivo

Row | Compound | pEC50 [1] | MIC [1] | pIC50 [2] | pIC50 [3] | pIC50 [4] | pIC50 [5] | Activity [6] | Activity [7] | Activity [8] | Activity [9] | Activity [10] | Activity [11] | Activity [12] | Activity [13] | Activity [14] | Activity [15] | Activity [16]
1 | COc1cc(O)c2c(c1O)C/C(CBr)=C\CC[C@@]1(C)O[C@@H]1C2=O | 4.66 | 13 µg/mL (≈ 33.9 µM) | 5.00 | 4.47 | 4.49 | 4.54 |  |  |  |  |  |  |  |  |  |  | 
2 | COC1=CC(=O)C2=C(C[C@]3(C)O[C@@H]3CC[C@@]3(C)O[C@@H]3C2=O)C1=O |  |  | 4.74 | 4.70 | 4.62 | 4.51 | inactive | inactive | inactive | inactive | inactive | inactive | inactive | inactive | inactive | inactive | 
3 | COc1cc(O)c2c(c1O)C/C(CO)=C\CC[C@@]1(C)O[C@@H]1C2=O | 4.30 |  | 4.40 | 4.23 | 4.37 | 4.38 |  |  |  |  |  |  |  |  |  |  | 
4 | COc1cc(O)c2c(c1O)C[C@]1(C)O[C@@H]1CC[C@@]1(C)O[C@@H]1C2=O |  |  | 5.00 | 5.05 | 4.77 | 4.54 | inactive | inactive | inactive | inactive | inactive | inactive | inactive | inactive | inactive | inactive | > 25%
5 | COc1cc(O)c2c(c1O)C/C(C(OC(C)=O)OC(C)=O)=C\CC[C@@]1(C)O[C@@H]1C2=O | 4.27 |  | 5.57 | 5.25 | 5.25 | 5.60 |  |  |  |  |  |  |  |  |  |  | 
6 | COc1cc(O)c2c(c1O)[C@@H](O)/C(C)=C\CC[C@@]1(C)O[C@@H]1C2=O |  |  | 5.40 | 5.39 | 5.21 | 4.54 | inactive | inactive | inactive | inactive | inactive | inactive | inactive | inactive | inactive | inactive | 
7 | COC1=CC(=O)C2=C(C/C(C)=C\CC[C@@]3(C)O[C@@H]3C2=O)C1=O | 4.19 |  | 4.89 | 4.85 | 4.57 | 4.55 |  |  |  |  |  |  |  |  |  |  | 
8 | COc1cc(O)c2c(c1O)C/C(C)=C\CC[C@@]1(C)O[C@@H]1C2=O |  |  | 5.01 | 5.00 | 4.82 | 4.55 | inactive | inactive | inactive | inactive | inactive | inactive | inactive | inactive | inactive | inactive | > 25%
9 | C=C1Cc2c(O)c(OC)cc(O)c2C(=O)[C@H]2O[C@]2(C)CC[C@H]1Br |  |  | 5.60 | 5.35 | 4.96 | 4.85 | inactive | inactive | inactive | inactive | inactive | inactive | inactive | inactive | inactive | inactive | 
10 | COc1cc(O)c2c(c1O)C[C@]1(C)O[C@@](C)(CC[C@H]1O)[C@H](O)C2=O |  |  | < 4.00 | 4.00 | 4.00 | < 4.00 | inactive | inactive | inactive | inactive | inactive | inactive | inactive | inactive | inactive | inactive | 

— ChEMBL document CHEMBL4130458, “Oxidation of the Meroterpenoid (-)-Terreumol C from the Mushroom Tricholoma terreum: Discovery of Cytotoxic Analogues” (J Nat Prod, 2017)
